Results on 17 compounds are retold here after patent US4386099A, “Imidazolylphenyl amidines, pharmaceutical compositions containing same and use thereof” (Istituto de Angeli S.p.A., priority 1980, dated 1983).

Like-named read-outs stand apart in the source and are kept apart here.

The term ED50 denotes the dose that gives a 50% effect, or the effect in half of the subjects. For orientation: EC50 means the concentration at which the effect is half-maximal. A low value points to greater potency.

The subject of series [1] is H2-receptor. As to conditions: in man, vs burimamide; cited from earlier work.
The conditions of series [2]: in vivo; cited from earlier work.
The target of series [3] is T1, histamine H2-receptors (Rattus norvegicus, UniProt P25102).
T1 construct: from tissue; host or cells: stomach of the anaesthetised rat, in vivo
As to the kind of experiment: In vivo anti-secretory activity in histamine-induced gastric secretion (stomach perfused rat). As to conditions: iv. The procedure:
The preparation of the animals in general anaesthesia (urethane, 1 gm/kg i.p.) and constant temperature, is achieved by inserting and typing in place polyethyl tubes (PE 50) in the esophagus and in the pyloric-antral region. After the stomach is washed to remove residual food, continuous perfusion of the stomach is started with saline, 0.5 ml/min (37° C.), primed by a Jobling peristaltic pump. After 30 minutes of perfusion adaptation, the stomach perfusate is collected in 30 minute samples, and the samples are titrated for acid content, expressed as μEq of 1 N NaOH. As acid output becomes constant, as a control, intravenous perfusion of histamine (1 mg/kg.hr) is started and maintained throughout the experimental period. […] The ED50 values are then calculated by standard procedure.

Series [4] concerns the target T2, histamine H2-receptors (Cavia porcellus, UniProt P47747).
T2 construct: isolated guinea pig atria suspended in an organ bath; from tissue; host or cells: isolated guinea pig atria
Kind of series: In vitro inhibitory activity in histamine-induced tachycardia (positive chronotropic effect, isolated guinea pig atria). Type of series: cell-based. As to conditions: reduction of histamine (10^-6 g/ml) H2-evoked response, pH 7.4, 32° C. How it is done: The positive chronotropic effect has been investigated in isolated guinea pig atria suspended in an organ bath (50 ml) containing oxygenated (O2 : 95%, CO2 : 5%) Krebs-Henseleit solution (pH 7.4) maintained at 32° C. The myocardial preparation, loaded at 1 gm of isometric tension, is allowed to stabilize for 60 minutes and myocardial contractions are recorded through an isometric lever connected to a strain-gauge coupler. The instantaneous rate is monitored with a cardiotachymeter and a heat-writing pen recorder. After a control run, responses (tachycardia) to histamine (10^-6 g/ml) are obtained three times at 30 minute intervals. The test compounds are added to the bath to the desired final concentration, and the atria are again injected with histamine. The chronotropic response obtained in the presence of the antagonist is then compared to the control response to histamine, and the percent reduction of the histamine H2 -evoked response is calculated. […] 3 Smooth Muscle, Ed Daniel E. E. Patron, M., Plenum Press. New York (1975), and Ash and Schild, Br. J. Pharmacol. Chemother. 27 427-439 (1966).

The next series concerns gastric acid secretion. As to conditions: in vivo testing, vs cimetidine; cited from earlier work.
The test system of series [5] is H2-receptor. The note with it: cited from earlier work; for Potency as H2-receptor antagonist: in vitro testing, vs cimetidine.
The conditions of series [6]: in vivo; cited from earlier work. The source holds these as a separate data set.
The conditions of series [7]: in vivo; cited from earlier work. The source holds these as a separate data set.
The mark [8] stands for this setting: stomach perfused rat, histamine 1 mg/kg.hr i.v., expressed with regard to the compound as a base, read-out: ED50.

T2 sequence (P47747 whole entry): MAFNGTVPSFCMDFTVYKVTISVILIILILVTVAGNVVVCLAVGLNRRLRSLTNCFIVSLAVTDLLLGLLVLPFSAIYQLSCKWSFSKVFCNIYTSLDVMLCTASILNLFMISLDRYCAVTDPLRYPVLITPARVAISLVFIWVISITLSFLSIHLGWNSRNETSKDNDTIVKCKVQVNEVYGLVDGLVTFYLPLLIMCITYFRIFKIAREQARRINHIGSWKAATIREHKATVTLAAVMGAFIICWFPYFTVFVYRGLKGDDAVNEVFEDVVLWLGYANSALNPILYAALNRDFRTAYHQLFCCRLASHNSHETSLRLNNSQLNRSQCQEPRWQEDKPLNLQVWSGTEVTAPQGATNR
T1 sequence (P25102 whole entry): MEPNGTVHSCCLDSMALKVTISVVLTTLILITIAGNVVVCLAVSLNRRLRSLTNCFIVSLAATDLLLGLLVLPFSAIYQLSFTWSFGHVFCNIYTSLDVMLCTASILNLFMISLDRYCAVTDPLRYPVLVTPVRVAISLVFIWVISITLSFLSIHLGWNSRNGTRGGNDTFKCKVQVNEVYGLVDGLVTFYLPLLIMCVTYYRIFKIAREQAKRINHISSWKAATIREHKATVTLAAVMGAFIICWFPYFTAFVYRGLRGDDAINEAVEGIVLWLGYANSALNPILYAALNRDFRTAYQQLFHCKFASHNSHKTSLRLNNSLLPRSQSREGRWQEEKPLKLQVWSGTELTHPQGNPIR

With `C/N=C(\S)NCCSCc1[nH]cnc1C` [Metiamide], in the series on H2-receptor [1], the “Potency and oral activity” value is “more potent and orally active in man than burimamide”. Besides, the Toxic side effects entry in series [2] is given as “toxic side effects (agranulocytosis)”.
For `CC(C)=CCNC=Nc1ccc(-c2c[nH]cn2)cc1` [G], on histamine H2-receptors [3] (setting [8]), the median effective dose (ED50) stood at 0.0559 mg/kg. At histamine H2-receptors [4], the 50% effective concentration (EC50) is 74 nM.
Regarding `C(=Nc1ccc(-c2c[nH]cn2)cc1)NCC1CC1` [H, N-Cyclopropylmethyl-N'-[4-(imidazol-4-yl)-phenyl]-formamidine], on histamine H2-receptors [3] (setting [8]), the ED50 was determined as 0.0235 mg/kg. The EC50 at histamine H2-receptors [4] was found to be 48 nM.
Consider `C=CC(C)NC=Nc1ccc(-c2c[nH]cn2)cc1` (stereo not drawn) [J, N-(α-Methylallyl)-N'-[4-(imidazol-4-yl)-phenyl]-formamidine], for which, at histamine H2-receptors [3] (setting [8]), the ED50 turned out to be 0.042 mg/kg. The same compound had an EC50 at histamine H2-receptors [4] of 168 nM.
Take `CNC(=C[N+](=O)[O-])NCCSCc1ccc(CN(C)C)o1` [ranitidine]: the “Potency as inhibitor of gastric acid secretion” value in the series with gastric acid secretion was “more potent than cimetidine”. For the same compound, in the series with H2-receptor [5], the “Potency as H2-receptor antagonist” value is on record as “more potent than cimetidine”.
Consider `CNC(=NCCSCc1csc(N=C(N)N)n1)NC#N` [tiotidine], for which, in the series with gastric acid secretion, the “Potency as inhibitor of gastric acid secretion” value is listed as “more potent than cimetidine”. Besides, the “Potency as H2-receptor antagonist” value with H2-receptor [5] is reported as “more potent than cimetidine”.
On to `C(=Nc1ccc(-c2c[nH]cn2)cc1)NC1CC1` [I, N-Cyclopropyl-N'-[4-(imidazol-4-yl)-phenyl]-formamidine], for which the ED50 on histamine H2-receptors [3] (setting [8]) came to 0.0366 mg/kg. The EC50 on histamine H2-receptors [4] was determined as 379 nM.
In the case of `CCCNC=Nc1ccc(-c2c[nH]cn2)cc1` [D, N-n-Propyl-N'-[4-(imidazol-4-yl)-phenyl]-formamidine], at histamine H2-receptors [3] (setting [8]), the ED50 stood at 0.0111 mg/kg. Also, the EC50 on histamine H2-receptors [4] amounted to 44 nM.
For the compound `CNC(=S)NCCCCc1cnc[nH]1` [burimamide], the Oral bioavailability entry in series [6] is “seemed to lack sufficient oral bioavailability”.
On histamine H2-receptors [3] (rat), `CN/C(=N/CCSCc1nc[nH]c1C)NC#N` [Cimetidine] displayed a median effective dose (ED50) of 0.56 mg/kg. Moreover, the Half-life result in series [7] is “relatively short”. Besides, the “Potency as H2-antagonist” value in the series on H2-receptor [5] (cimetidine vs metiamide) was “as potent as metiamide”. In addition, in series [2], the Toxic side effects entry is on record as “devoid of the toxic side effects of metiamide”.
With `C=CCNC=Nc1ccc(-c2c[nH]cn2)cc1` [C, N-Allyl-N'-[4-(imidazol-4-yl)-phenyl]-formamidine], the ED50 on histamine H2-receptors [3] (setting [8]) is 0.024 mg/kg. This compound had an EC50 at histamine H2-receptors [4] of 93 nM.
Take `CC(C)NC=Nc1ccc(-c2c[nH]cn2)cc1` [B, N-Isopropyl-N'-[4-(imidazol-4-yl)-phenyl]-formamidine]: on histamine H2-receptors [3] (setting [8]), the ED50 came out at 0.0129 mg/kg. A half-maximal response on histamine H2-receptors [4] (EC50) required 92 nM.
On the same counts, the results for `CCNC=Nc1ccc(-c2c[nH]cn2)cc1` [Compound A, N-Ethyl-N'-[4-(imidazol-4-yl)-phenyl]-formamidine] are 0.02 mg/kg and 300 nM.
As for `CC(C)CNC=Nc1ccc(-c2c[nH]cn2)cc1` [F, N-Isobutyl-N'-[4-(imidazol-4-yl)-phenyl]-formamidine], on histamine H2-receptors [3] (setting [8]), the ED50 came out at 0.0259 mg/kg. This compound showed an EC50 at histamine H2-receptors [4] of 65 nM.
Consider `CCC(C)NC=Nc1ccc(-c2c[nH]cn2)cc1` (centres unmarked) [Compound E, N-sec-Butyl-N'-[4-(imidazol-4-yl)-phenyl]-formamidine], for which, at histamine H2-receptors [3] (setting [8]), the 50% effective dose (ED50) amounted to 0.0223 mg/kg. Also, the EC50 at histamine H2-receptors [4] was 150 nM.
Take `CC(C)(C)CNC=Nc1ccc(-c2c[nH]cn2)cc1` [K, N-Neopentyl-N'-[4-(imidazol-4-yl)-phenyl]-formamidine]: the ED50 on histamine H2-receptors [3] (setting [8]) came to 0.03 mg/kg. The compound further returned an EC50 on histamine H2-receptors [4] of 121 nM.
In the case of `CC1(C)CC1CNC=Nc1ccc(-c2c[nH]cn2)cc1` (centres unmarked) [L, N-(2,2-Dimethyl)-cyclopropylmethyl-N'-[4-(imidazol-4-yl)-phenyl]-formamidine], the ED50 at histamine H2-receptors [3] (setting [8]) amounted to 0.034 mg/kg. The same compound had an EC50 on histamine H2-receptors [4] of 500 nM.
